As a reminder, the IC50 is the concentration that inhibits the measured activity by half. What is called Ki is the equilibrium dissociation constant of an inhibitor or competing ligand from its target. Lower therefore signals higher affinity. What is called half-life is the time in which the quantity being followed falls by half. Lower therefore signals rapid decline.

A value given as a limit tells only on which side of the number the result lay.

The target in the first data set is T1, Human HERG (Homo sapiens, UniProt Q12809).
T1 construct: expressed in transfected cells; host or cells: HEK293S (membrane homogenate)
T1 sequence (Q12809 whole entry): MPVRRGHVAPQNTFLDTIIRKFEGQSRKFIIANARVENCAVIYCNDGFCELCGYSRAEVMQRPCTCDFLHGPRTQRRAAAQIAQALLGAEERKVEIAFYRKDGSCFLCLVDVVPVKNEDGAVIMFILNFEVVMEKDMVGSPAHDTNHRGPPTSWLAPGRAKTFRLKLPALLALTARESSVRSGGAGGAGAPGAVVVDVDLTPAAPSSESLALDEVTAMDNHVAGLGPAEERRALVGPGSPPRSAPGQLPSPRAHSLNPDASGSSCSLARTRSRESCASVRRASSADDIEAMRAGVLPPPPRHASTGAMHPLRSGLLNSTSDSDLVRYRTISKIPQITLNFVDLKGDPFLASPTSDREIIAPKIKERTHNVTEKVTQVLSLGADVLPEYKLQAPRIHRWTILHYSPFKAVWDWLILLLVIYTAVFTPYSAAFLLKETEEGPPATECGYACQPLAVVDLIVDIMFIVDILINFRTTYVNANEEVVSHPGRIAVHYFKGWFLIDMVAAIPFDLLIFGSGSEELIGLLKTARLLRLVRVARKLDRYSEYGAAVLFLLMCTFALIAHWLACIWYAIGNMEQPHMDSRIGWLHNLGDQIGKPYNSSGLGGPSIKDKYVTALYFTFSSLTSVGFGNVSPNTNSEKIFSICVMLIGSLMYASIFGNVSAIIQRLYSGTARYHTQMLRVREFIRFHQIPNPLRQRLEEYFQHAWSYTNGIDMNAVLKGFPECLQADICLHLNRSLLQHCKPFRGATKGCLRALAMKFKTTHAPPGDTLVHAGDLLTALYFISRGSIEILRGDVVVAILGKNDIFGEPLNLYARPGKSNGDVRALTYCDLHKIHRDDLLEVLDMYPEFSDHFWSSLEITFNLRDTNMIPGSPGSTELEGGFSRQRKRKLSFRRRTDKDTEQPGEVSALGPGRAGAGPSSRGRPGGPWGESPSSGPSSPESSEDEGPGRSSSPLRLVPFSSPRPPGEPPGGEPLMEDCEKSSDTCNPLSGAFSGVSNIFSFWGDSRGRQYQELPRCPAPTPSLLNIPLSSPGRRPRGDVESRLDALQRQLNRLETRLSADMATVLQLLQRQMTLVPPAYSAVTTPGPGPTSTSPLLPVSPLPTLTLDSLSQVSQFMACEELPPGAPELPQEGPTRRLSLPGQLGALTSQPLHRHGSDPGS
Put plainly: Human dofetilide binding assay. The note with it: Human HERG transfected HEK293S cell membranes. The protocol:
Human Dofetilide Binding Assay
Human HERG transfected HEK293S cells are prepared and grown in-house. The collected cells are suspended in 50 mM Tris-HCl (pH 7.4 at 4° C.) and homogenized using a hand held Polytron PT 1200 disruptor set at full power for 20 sec on ice. The homogenates are centrifuged at 48,000×g at 4° C. for 20 min. The pellets are then resuspended, homogenized, and centrifuged once more in the same manner. The final pellets are resuspended in an appropriate volume of 50 mM Tris-HCl, 10 mM KCl, 1 mM MgCl2 (pH 7.4 at 4° C.), homogenized, aliquoted and stored at −80° C. until use. An aliquot of membrane fractions is used for protein concentration determination using BCA protein assay kit (PIERCE) and ARVOsx plate reader (Wallac). Binding assays are conducted in a total volume of 30 microL in 384-well plates. The activity is measured by PHERAstar (BMG LABTECH) using fluorescence polarization technology. Ten microL of test compounds are incubated with 10 microL of fluorescence ligand (6 nM Cy3B tagged dofetilide derivative) and 10 microL of membrane homogenate (6 microgram protein) for 120 minutes at room temperature. Nonspecific binding is determined by 10 microM E4031 at the final concentration.
Compound `CC(C)[C@@H]1CC[C@@H](C)C[C@]12NC(=O)C(CC(=O)c1ccccc1)C2=O` (stereo partly drawn) [closest compound] showed an IC50 of 19000 nM and a Ki of 6500 nM.

Tested on in a further data set: not listed separately
In words: Metabolic stability assay: half-life in human liver microsomes (HLM). In kind it is in vitro ADME. The note with it: human, pH 7.4, read-out: intrinsic clearance (CLint). The protocol: Metabolic Stability Assay:
Half-Life in Human Liver Microsomes (HLM)
Test compounds (1 microM) are incubated with 1 mM MgCl2 and 0.78 mg/mL HLM (HL101) or 0.74 mg/mL HLM (Gentest UltraPool 150) or 0.61 mg/mL HLM (XenoTech XTreme 200) in 100 mM potassium phosphate buffer (pH 7.4) at 37° C. on the 96-deep well plate. The reaction mixture is split into two groups, a non-P450 and a P450 groupon necessary. NADPH is only added to the reaction mixture of the P450 group. (NADPH generation system is also used instead of NADPH.) An aliquot of samples of P450 group is collected at 0, 10, 30, and 60 min time point, where 0 min time point indicated the time when NADPH is added into the reaction mixture of P450 group. An aliquot of samples of non-P450 group is collected at −10 and 65 min time point. Collected aliquots are extracted with acetonitrile solution containing an internal standard. The precipitated protein is spun down in centrifuge (2000 rpm, 15 min). The compound concentration in supernatant is measured by LC/MS/MS system.
The half-life value is obtained by plotting the natural logarithm of the peak area ratio of compounds/internal standard versus time. The slope of the line of best fit through the points yield the rate of metabolism (k). This is converted to a half-life value using following equations: Half-life=ln 2/k {Math. 4}
As for `CC(C)[C@@H]1CC[C@@H](C)C[C@]12NC(=O)C(CC(=O)c1ccccc1)C2=O` (stereo partly drawn) [closest compound], the CLint scaled at 1 microM was > 215 mL/min/kg.

Staying with this data set, now noted: pH 7.4, 1 microM.
As to `CC(C)[C@@H]1CC[C@@H](C)C[C@]12NC(=O)C(CC(=O)c1ccccc1)C2=O` (stereo partly drawn) [closest compound], the half-life at 1 microM was < 5 min.

The target of a further data set is T2, human TRPM8 (Homo sapiens, UniProt Q7Z2W7).
T2 construct: expressed in transfected cells; host or cells: HEK293
T2 sequence (Q7Z2W7 whole entry): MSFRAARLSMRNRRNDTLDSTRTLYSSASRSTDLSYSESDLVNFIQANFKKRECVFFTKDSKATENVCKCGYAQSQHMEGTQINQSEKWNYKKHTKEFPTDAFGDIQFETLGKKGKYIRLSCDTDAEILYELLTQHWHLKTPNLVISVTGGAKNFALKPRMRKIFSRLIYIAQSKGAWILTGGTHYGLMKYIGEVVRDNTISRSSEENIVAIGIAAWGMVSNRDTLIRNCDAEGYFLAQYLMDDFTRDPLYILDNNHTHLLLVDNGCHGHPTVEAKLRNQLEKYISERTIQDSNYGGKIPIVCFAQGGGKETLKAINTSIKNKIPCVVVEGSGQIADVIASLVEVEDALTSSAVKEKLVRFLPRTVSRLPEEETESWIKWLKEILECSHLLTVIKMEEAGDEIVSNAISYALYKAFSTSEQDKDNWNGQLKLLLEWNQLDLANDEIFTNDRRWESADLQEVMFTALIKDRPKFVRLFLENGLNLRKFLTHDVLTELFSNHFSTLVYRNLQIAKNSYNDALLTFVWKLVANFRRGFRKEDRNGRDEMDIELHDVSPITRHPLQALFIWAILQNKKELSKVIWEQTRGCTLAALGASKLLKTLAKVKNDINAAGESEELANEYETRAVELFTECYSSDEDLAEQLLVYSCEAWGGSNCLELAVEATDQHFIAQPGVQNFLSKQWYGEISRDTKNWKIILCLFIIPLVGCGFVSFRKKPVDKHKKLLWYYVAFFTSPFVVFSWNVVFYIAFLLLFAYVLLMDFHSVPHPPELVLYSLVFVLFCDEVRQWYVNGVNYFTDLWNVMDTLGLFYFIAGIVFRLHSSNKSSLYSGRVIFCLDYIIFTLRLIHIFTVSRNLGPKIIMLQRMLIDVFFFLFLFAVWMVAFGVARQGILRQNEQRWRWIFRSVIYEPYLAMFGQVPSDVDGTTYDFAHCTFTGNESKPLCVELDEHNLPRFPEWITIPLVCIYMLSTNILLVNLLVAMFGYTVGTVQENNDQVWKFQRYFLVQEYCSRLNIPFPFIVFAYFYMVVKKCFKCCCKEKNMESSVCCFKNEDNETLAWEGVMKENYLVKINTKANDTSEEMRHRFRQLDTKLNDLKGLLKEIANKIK
Put plainly: Menthol-induced Ca2+ influx in HEK293 cells stably expressing human TRPM8. The note with it: 30 microM menthol-induced Ca2+ influx, read-out: IC50 against TRPM8. The format is cell-based. In outline:
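IC50 values were fitted from 11-point dose-response data averaged over duplicate wells. Compound was added for 5 min to Fluo4-loaded HEK293 cells carrying stable human TRPM8, in HBSS/HEPES pH 7.4 with probenecid. Intracellular Ca2+ change after 30 microM menthol addition was then imaged on FDSS.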
Take `N#Cc1ccnnc1Oc1ccc(C(=O)CN2C(=O)NC3(CCC(F)(F)CC3)C2=O)cc1` [Example 21-12, 3-(4-(2-(8,8-difluoro-2,4-dioxo-1,3-diazaspiro[4.5]decan-3-yl)acetyl)phenoxy)pyridazine-4-carbonitrile]: the IC50 was < 100 nM.
Same read-out and setting: to `O=C(CN1C(=O)NC2(CCC(F)(F)CC2)C1=O)c1ccc(Oc2nccs2)cc1` [Example 21-13, 8,8-difluoro-3-(2-oxo-2-(4-(thiazol-2-yloxy)phenyl)ethyl)-1,3-diazaspiro[4.5]decane-2,4-dione] belongs < 100 nM.
With `O=C(CN1C(=O)NC2(CCC(F)(F)CC2)C1=O)c1ccc(Oc2cccnc2)cc1` [Example 21-14, 8,8-difluoro-3-(2-oxo-2-(4-(pyridin-3-yloxy)phenyl)ethyl)-1,3-diazaspiro[4.5]decane-2,4-dione], the IC50 was < 100 nM.
Same read-out and setting: to `O=C(CN1C(=O)NC2(CCC(F)(F)CC2)C1=O)c1ccc(Oc2cncnc2)cc1` [Example 21-15] belongs < 500 nM; to `O=C(CN1C(=O)NC2(CCC(F)(F)CC2)C1=O)c1ccc(Oc2cccnc2)cc1F` [Example 21-16], < 500 nM; to `O=C(CN1C(=O)NC2(CCC(F)(F)CC2)C1=O)c1ccc(Oc2cccnc2)c(F)c1` [Example 21-17], < 100 nM.
As for `O=C(CN1CC2(CCC(F)(F)CC2)OC1=O)c1ccc(-n2cnc3cccnc32)cc1` [Example 22-1], the concentration for half-maximal inhibition (IC50) was < 100 nM.
Same read-out and setting: the same measure for `Cc1nc2cccnc2n1-c1ccc(C(=O)CN2CC3(CCC(F)(F)CC3)OC2=O)cc1` [Example 22-2]: < 500 nM; for `Cc1nc2ccccc2n1-c1ccc(C(=O)CN2CC3(CCC(F)(F)CC3)OC2=O)cc1` [Example 22-3]: < 100 nM; for `O=C(CN1CC2(CCC(F)(F)CC2)OC1=O)c1ccc(-n2cnc3ccccc32)cc1` [Example 22-4]: < 100 nM.
As for `Cc1ccc2nc(C)n(-c3ccc(C(=O)CN4CC5(CCC(F)(F)CC5)OC4=O)cc3)c2n1` [Example 22-6], the IC50 is < 500 nM.
The same measure, in the same setting: the same measure for `O=C(CN1C(=O)NC2(CCC(F)(F)CC2)C1=O)c1ccc(-n2c(=O)[nH]c3cccnc32)cc1` [Example 23-1, 8,8-difluoro-3-(2-oxo-2-(4-(2-oxo-1H-imidazo[4,5-b]pyridin-3(2H)-yl)phenyl)ethyl)-1,3-diazaspiro[4.5]decane-2,4-dione]: < 100 nM; for `Cc1ccc2[nH]c(=O)n(-c3ccc(C(=O)CN4C(=O)NC5(CCC(F)(F)CC5)C4=O)cc3)c2n1` [Example 23-2, 8,8-difluoro-3-(2-(4-(5-methyl-2-oxo-1H-imidazo[4,5-b]pyridin-3(2H)-yl)phenyl)-2-oxoethyl)-1,3-diazaspiro[4.5]decane-2,4-dione]: < 100 nM; for `O=C(CN1C(=O)NC2(CCC(F)(F)CC2)C1=O)c1ccc(-n2c(C(F)F)nc3cccnc32)cc1` [Example 24-1]: < 100 nM.
In the case of `CCc1nc2cccnc2n1-c1ccc(C(=O)CN2C(=O)NC3(CCC(F)(F)CC3)C2=O)cc1` [Example 24-2], the IC50 is < 500 nM.
Same read-out and setting: to `O=C(CN1C(=O)NC2(CCC(F)(F)CC2)C1=O)c1ccc(-n2c(C3CC3)nc3cccnc32)cc1` [Example 24-3] belongs < 500 nM; to `COCc1nc2cccnc2n1-c1ccc(C(=O)CN2C(=O)NC3(CCC(F)(F)CC3)C2=O)cc1` [Example 24-4], < 500 nM; to `Cc1ccc2nc(C(F)F)n(-c3ccc(C(=O)CN4C(=O)NC5(CCC(F)(F)CC5)C4=O)cc3)c2n1` [Example 24-5], < 10 nM.
For `O=C(CN1C(=O)NC2(CCC(F)(F)CC2)C1=O)c1ccc(-n2c(C(F)(F)F)nc3cccnc32)cc1` [Example 24-6, 8,8-difluoro-3-(2-oxo-2-(4-(2-(trifluoromethyl)-3H-imidazo[4,5-b]pyridin-3-yl)phenyl)ethyl)-1,3-diazaspiro[4.5]decane-2,4-dione], the IC50 was < 100 nM.
`Cc1ccc2nc(C(F)(F)F)n(-c3ccc(C(=O)CN4C(=O)NC5(CCC(F)(F)CC5)C4=O)cc3)c2n1` [Example 24-7, 8,8-difluoro-3-(2-(4-(5-methyl-2-(trifluoromethyl)-3H-imidazo[4,5-b]pyridin-3-yl)phenyl)-2-oxoethyl)-1,3-diazaspiro[4.5]decane-2,4-dione]: the 50% inhibitory concentration (IC50) is < 10 nM.
In the case of `Cc1ccc2nc(CN3CCCCC3)n(-c3ccc(C(=O)CN4C(=O)NC5(CCC(F)(F)CC5)C4=O)cc3)c2n1` [Example 25-3], the IC50 is < 500 nM.
Same read-out and setting: the same measure for `Cc1ccc2nc(CN3CCC3)n(-c3ccc(C(=O)CN4C(=O)NC5(CCC(F)(F)CC5)C4=O)cc3)c2n1` [Example 25-4]: < 500 nM; for `COc1nc2cccnc2n1-c1ccc(C(=O)CN2C(=O)NC3(CCC(F)(F)CC3)C2=O)cc1` [Example 26-1, 8,8-difluoro-3-(2-(4-(2-methoxy-3H-imidazo[4,5-b]pyridin-3-yl)phenyl)-2-oxoethyl)-1,3-diazaspiro[4.5]decane-2,4-dione]: < 10 nM.
On the same count and under the same terms, to `Cc1ccc2ncn(-c3ccc(C(=O)CN4C(=O)NC5(CCC(F)(F)CC5)C4=O)cc3)c2n1` [Example 26-2] belongs < 100 nM; to `COc1nc2ccc(C)nc2n1-c1ccc(C(=O)CN2C(=O)NC3(CCC(F)(F)CC3)C2=O)cc1` [Example 26-3], < 10 nM; to `CCOc1nc2ccc(C)nc2n1-c1ccc(C(=O)CN2C(=O)NC3(CCC(F)(F)CC3)C2=O)cc1` [Example 26-4], < 100 nM.
The same measure, in the same setting: the same measure for `Cc1nc2ccc(C#N)nc2n1-c1ccc(C(=O)CN2C(=O)NC3(CCC(F)(F)CC3)C2=O)cc1` [Example 27-1, 3-(4-(2-(8,8-difluoro-2,4-dioxo-1,3-diazaspiro[4.5]decan-3-yl)acetyl)phenyl)-2-methyl-3H-imidazo[4,5-b]pyridine-5-carbonitrile]: < 10 nM.
`O=C(CN1C(=O)NC2(CCC(F)(F)CC2)C1=O)c1ccc(-n2c(CO)nc3cccnc32)cc1` [Example 28-4, 8,8-difluoro-3-(2-(4-(2-(hydroxymethyl)-3H-imidazo[4,5-b]pyridin-3-yl)phenyl)-2-oxoethyl)-1,3-diazaspiro[4.5]decane-2,4-dione]: the IC50 is < 500 nM.
On the same count and under the same terms, the same measure for `Cc1ccc2nc(CO)n(-c3ccc(C(=O)CN4C(=O)NC5(CCC(F)(F)CC5)C4=O)cc3)c2n1` [Example 28-5, 8,8-difluoro-3-(2-(4-(2-(hydroxymethyl)-5-methyl-3H-imidazo[4,5-b]pyridin-3-yl)phenyl)-2-oxoethyl)-1,3-diazaspiro[4,5]decane-2,4-dione]: < 100 nM.

The values above are taken from patent US10093678B2, “Azaspiro derivatives as TRPM8 antagonists” (RaQualia Pharma Inc., priority 2014, dated 2018).
